Key:
Assay type in all cases: cell-based
Aspergillus niger = test: Disk inhibition testing, A. niger; conditions: 48 hours at 25° C.
Description: (§1) Fungal broths of Aspergillus fumigatus and Aspergillus niger were prepared in a tissue culture hood by transferring the frozen stock culture (−70° C. freezer) of the given fungi to a plate of Sabourad Dextrose Agar. The A. fumigatus culture plates were incubated for 48 hours at 37° C. and the A. niger culture plates were incubated for 72 hours at 25° C. The fungal broth was prepared by using a cork borer to add 2-3 circular pieces of agar containing active fungal growth to distilled water (4.0 mL). A tissue homogenizer was then used to grind the agar and create a suspension of fungal spores.
(§2) Each sample (˜15 mg) was dissolved in a solvent (3.000 mL of tetrahydrofuran or 3.000 mL distilled water) depending on the sample's solubility. The sample (20 μL of sample solution or 100 μg of sample was then transferred to a sterile filter paper disk. The disk was then allowed to dry so that all solvent was evaporated and 100 μg of sample remained on the disk. […]
(§3) The C. albicans and A. fumigfatus plates were incubated for 24 hours at 37° C., the A. niger plates were incubated for 48 hours at 25° C. and the S. cerevisiae plates were incubated for 24 hours at 30° C. […] Where a zone of growth inhibition was observed, the diameter of the ring was measured to the closest 0.1 mm using a caliper. […]

Saccharomyces cerevisiae = test: Disk inhibition testing, S. cerevisiae; conditions: 24 hours at 30° C.; for zone of inhibition at 100 µg/disc: Saccharomyces cerevisiae, 100 μg sample per disk, NI = no inhibition, read-out: Diameter of zone of growth inhibition, S. Cerevisiae
Description: (§4) Plates of Sabourad Dextrose Agar (Difco) and tubes of Malt Extract Broth (20 mL/tube) were prepared according to manufacturer direction using aseptic techniques. Fungal broths of Saccharomyces cerevisiae and Candida albicans were prepared in a tissue culture hood by transferring frozen stock culture (−70° C. freezer, prepared from ATCC bought strains) of the given fungi to the broth tube. The S. cerevisiae culture tubes were incubated for 48 hours at 30° C. and the C. albicans culture tubes were incubated for 48 hours at 37° C.
(§5) Each sample (˜15 mg) was dissolved in a solvent (3.000 mL of tetrahydrofuran or 3.000 mL distilled water) depending on the sample's solubility. The sample (20 μL of sample solution or 100 μg of sample was then transferred to a sterile filter paper disk. The disk was then allowed to dry so that all solvent was evaporated and 100 μg of sample remained on the disk.
Plates of Sabourad Dextrose Agar (Difco) were prepared according to manufacture directions using aseptic techniques. The fungal agar plates were prepared using the culture broth of S. cerevisiae, C. albicans, A. fumigatus or A. niger as prepared above after the incubation period. In a tissue culture hood, the fungal culture broth solution (200 μL) was transferred to each Sabourad Dextrose Agar plate and spread evenly over the agar and allowed to dry for a minimum of 20 minutes. Four sample disks or control antifungal disks were then places onto each agar plate, one in the center of each quadrant of the plate. The sample disks were prepared as described above and the antifungal disks were pre-made disks of 20 μg of amphotericin B.
The C. albicans and A. fumigfatus plates were incubated for 24 hours at 37° C., the A. niger plates were incubated for 48 hours at 25° C. and the S. cerevisiae plates were incubated for 24 hours at 30° C. The plates were then observed for zones of fungal growth inhibition. Where a zone of growth inhibition was observed, the diameter of the ring was measured to the closest 0.1 mm using a caliper. […]

Candida albicans = test: Disk inhibition testing, C. albicans; conditions: 24 hours at 37° C.
Description: as §4, §5
Plates of Sabourad Dextrose Agar (Difco) were prepared according to manufacture directions using aseptic techniques. […]
as §3

Aspergillus fumigatus = test: Disk inhibition testing, A. fumigatus; conditions: pre-made antifungal disk 20 μg; 24 hours at 37° C.
Description: as §1, §2, §3

Escherichia coli = test: Disk inhibition testing, E. coli; conditions: 24 hours at 37° C.; for zone of inhibition at 100 µg/disc: Escherichia coli, 100 μg sample per disk, NI = no inhibition, read-out: Diameter of zone of growth inhibition, E. Coli
Description: (§6) Tubes of Tryptic Soy Broth (10 mL/tube,) were prepared according to manufacturer directions (Difco) using aseptic techniques. Bacterial broth of Escherichia coli, Staphylococcus aureus, Pseudomonas aeruginosa, Proteus hauseri, and Bacillus cereus were prepared in a tissue culture hood by transferring frozen stock culture (−70° C. freezer, prepared from ATCC bacterial quality control strains) of the given bacteria to the broth tube. The E. coli, S. aureus, P. aeruginosa, and P. hauseri culture tubes were then incubated for 24 hours at 37° C. and the B. cereus culture tubes were incubated at 30° C. for 24 hours.
as §5
(§7) Plates of Mueller Hinton II Agar (Difco) were prepared according to manufacturer directions using aseptic techniques. The bacterial agar plates were prepared using the bacterial culture broth of E. coli, S. aureus, P. aeruginosa, P. hauseri, or B. cereus as prepared above after the incubation period. In a tissue culture hood, the given bacterial culture broth solution (300 μL) was transferred to each Mueller Hinton Agar II plate and spread evenly over the agar and allowed to dry for a minimum of 20 minutes. Four sample disks (as prepared above) or control antibiotic disks (pre-made disks) were then places onto each agar plate, one in the center of each quadrant of the plate.
(§8) The E. coli, S. aureus, P. aeruginosa, and P. hauseri, plates were incubated for 24 hours at 37° C. and the B. cereus plates were incubated for 24 hours at 30° C. The plates were then observed for zones of bacterial growth inhibition. Where a zone of growth inhibition was observed, the diameter of the ring was measured to the closest 0.1 mm using a caliper. […] The absence of a uniform bacterial lawn was ruled a failed test and in this case the test would need to be repeated in order to achieve meaningful results.

Staphylococcus aureus = test: Disk inhibition testing, S. aureus; conditions: 24 hours at 37° C.; for zone of inhibition at 100 µg/disc: Staphylococcus aureus, 100 μg sample per disk, NI = no inhibition, read-out: Diameter of zone of growth inhibition, S. Aureus
Description: as §6, §5, §7, §8

Proteus hauseri = test: Disk inhibition testing, P. hauseri; conditions: 24 hours at 37° C.; for zone of inhibition at 100 µg/disc: Proteus hauseri, 100 μg sample per disk, NI = no inhibition, read-out: Diameter of zone of growth inhibition, P. Hauseri
Description: as §6, §5, §7, §8

Pseudomonas aeruginosa = test: Disk inhibition testing, P. aeruginosa; conditions: 24 hours at 37° C.
Description: as §6, §5, §7, §8

Bacillus cereus = test: Disk inhibition testing, B. cereus; conditions: pre-made control disk 30 μg; 24 hours at 30° C.
Description: as §6, §5
Plates of Mueller Hinton II Agar (Difco) were prepared according to manufacturer directions using aseptic techniques. […]
The E. coli, S. aureus, P. aeruginosa, and P. hauseri, plates were incubated for 24 hours at 37° C. and the B. cereus plates were incubated for 24 hours at 30° C. […] Where a zone of growth inhibition was observed, the diameter of the ring was measured to the closest 0.1 mm using a caliper. […]

Compound: C[C@@H]1[C@H](O)[C@@H](C)/C=C/C=C/C=C/C=C/C=C/C=C/C=C/[C@H](O[C@@H]2O[C@H](C)[C@@H](O)[C@H](N)[C@@H]2O)C[C@@H]2O[C@](O)(C[C@@H](O)C[C@@H](O)[C@H](O)CC[C@@H](O)C[C@@H](O)CC(=O)O[C@H]1C)C[C@H](O)[C@H]2C(=O)O [Amphotericin B, amphotericin B]
- Diameter of zone of growth inhibition, A. Niger (Aspergillus niger; pre-made antifungal disk 20 μg): 9.7 mm
- Diameter of zone of growth inhibition, S. Cerevisiae (Saccharomyces cerevisiae; pre-made antifungal disk 20 μg): 10.2 mm
- Diameter of zone of growth inhibition, C. Albicans (Candida albicans; pre-made antifungal disk 20 μg): 12.9 mm
- Diameter of zone of growth inhibition, A. Fumigratus (Aspergillus fumigatus): 11.4 mm

Compound: CC(C)=CCC/C(C)=C/CO [Geraniol]
- zone of inhibition at 100 µg/disc (Escherichia coli): 8.5 mm
- zone of inhibition at 100 µg/disc (Staphylococcus aureus): 4.7 mm
- zone of inhibition at 100 µg/disc (Proteus hauseri): 9.3 mm
- zone of inhibition at 100 µg/disc (Aspergillus niger; Aspergillus niger, 100 μg sample per disk, NI = no inhibition, read-out: Diameter of zone of growth inhibition, A. Niger): 8.1 mm
- zone of inhibition at 100 µg/disc (Candida albicans; Candida albicans, 100 μg sample per disk, NI = no inhibition, read-out: Diameter of zone of growth inhibition, C. Albicans): 8.3 mm

Compound: Penicillin
- Diameter of zone of growth inhibition, E. Coli (Escherichia coli; pre-made control disk 10 μg): 9.4 mm
- Diameter of zone of growth inhibition, S. Aureus (Staphylococcus aureus; pre-made control disk 10 μg): 16.9 mm
- Diameter of zone of growth inhibition, P. Hauseri (Proteus hauseri; pre-made control disk 10 μg): 8.1 mm

Compound: CN(C)[C@@H]1C(O)=C(C(N)=O)C(=O)[C@@]2(O)C(O)=C3C(=O)c4c(O)cccc4[C@@](C)(O)[C@H]3C[C@@H]12 [Tetracycline]
- Diameter of zone of growth inhibition, E. Coli (Escherichia coli; pre-made control disk 30 μg): 21.4 mm
- Diameter of zone of growth inhibition, S. Aureus (Staphylococcus aureus; pre-made control disk 30 μg): 19.0 mm
- Diameter of zone of growth inhibition, P. Aeriginosa (Pseudomonas aeruginosa; pre-made control disk 30 μg): 12.3 mm
- Diameter of zone of growth inhibition, P. Hauseri (Proteus hauseri; pre-made control disk 30 μg): 15.9 mm
- Diameter of zone of growth inhibition, B. Cereus (Bacillus cereus): 23.4 mm

Compound: CC1(C)S[C@@H]2[C@H](NC(=O)[C@H](N)c3ccccc3)C(=O)N2[C@H]1C(=O)O [Ampicillin]
- Diameter of zone of growth inhibition, E. Coli (Escherichia coli; pre-made control disk 10 μg): 19.7 mm
- Diameter of zone of growth inhibition, P. Aeriginosa (Pseudomonas aeruginosa; pre-made control disk 10 μg, NI = no inhibition): 9.1 mm
- Diameter of zone of growth inhibition, P. Hauseri (Proteus hauseri; pre-made control disk 10 μg): 7.2 mm

Compound: O=C(N[C@H](CO)[C@H](O)c1ccc([N+](=O)[O-])cc1)C(Cl)Cl [Chloramphenicol]
- Diameter of zone of growth inhibition, E. Coli (Escherichia coli; pre-made control disk 30 μg): 24.4 mm
- Diameter of zone of growth inhibition, S. Aureus (Staphylococcus aureus; pre-made control disk 30 μg): 17.8 mm
- Diameter of zone of growth inhibition, P. Aeriginosa (Pseudomonas aeruginosa; pre-made control disk 30 μg): 18.7 mm
- Diameter of zone of growth inhibition, P. Hauseri (Proteus hauseri; pre-made control disk 30 μg): 16.7 mm
- Diameter of zone of growth inhibition, B. Cereus (Bacillus cereus): 15.7 mm

Compound: C=CC(C)(O)CCC=C(C)C (centres unmarked) [Linalool]
- zone of inhibition at 100 µg/disc (Escherichia coli): 7.2 mm
- zone of inhibition at 100 µg/disc (Pseudomonas aeruginosa; Pseudomonas aeruginosa, 100 μg sample per disk, NI = no inhibition, read-out: Diameter of zone of growth inhibition, P. Aeriginosa): 7.1 mm
- zone of inhibition at 100 µg/disc (Saccharomyces cerevisiae): 7.3 mm

Compound: CC(C)=CCCC(C)CCO (centres unmarked) [Citronellol]
- zone of inhibition at 100 µg/disc (Escherichia coli): 8.7 mm
- zone of inhibition at 100 µg/disc (Staphylococcus aureus): 5.4 mm
- zone of inhibition at 100 µg/disc (Proteus hauseri): 8.8 mm
- zone of inhibition at 100 µg/disc (Saccharomyces cerevisiae): 6.7 mm

Reference: patent US9982073B2, “Homopolymers of terpenoid alcohols and their uses” (priority 2015, dated 2018)
